Experimental data from the supplement of paper PMC4862054.

Legend:
Conditions in all cases: incubation time: 72 h
[1] = tested on: HCC1937; experiment: normalised response (% of control), CellTox Green; higher = less cell death (100 = DMSO, 0 = benzethonium chloride kill control)
How it was run: (§1)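 Breast cancer cell lines were exposed for 72 h in 384-well plates to compound at 5 concentrations, 10-fold apart, covering a 10,000-fold range fixed for each compound. Plates were read for CellTox Green fluorescence and CellTiter-Glo luminescence and normalised to 0.1 % DMSO (100) and a positive kill control (0). Each value is the normalised signal at one concentration of the series.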

[2] = tested on: HDQ-P1; experiment: as above
How it was run: as §1

[3] = tested on: CAL-85-1; experiment: as above
How it was run: as §1

[4] = tested on: MFM-223; experiment: as above
How it was run: as §1

[5] = tested on: CAL-148; experiment: as above
How it was run: as §1

[6] = tested on: MDA-MB-468; experiment: as above
How it was run: as §1

[7] = tested on: DU-4475; experiment: as above
How it was run: as §1

[8] = tested on: MDA-MB-453; experiment: as above
How it was run: as §1

[9] = tested on: MDA-MB-231; experiment: as above
How it was run: as §1

[10] = tested on: CAL-120; experiment: as above
How it was run: as §1

[11] = tested on: Hs578T; experiment: as above
How it was run: as §1

[12] = tested on: HCC1599; experiment: as above
How it was run: as §1

[13] = tested on: MDA-MB-436; experiment: as above
How it was run: as §1

[14] = tested on: BT-474; experiment: as above
How it was run: as §1

[15] = tested on: HCC1143; experiment: as above
How it was run: as §1

[16] = tested on: BT-549; experiment: as above
How it was run: as §1

[17] = tested on: CAL-51; experiment: as above
How it was run: as §1

[18] = tested on: MCF-10A; experiment: as above
How it was run: as §1

[19] = tested on: SK-BR-3; experiment: normalised response (% of control), CellTiter-Glo; higher = more viable cells (100 = DMSO, 0 = benzethonium chloride kill control)
Experimental: (§2)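 DSRT, 72 h incubation, CellTox Green / CellTiter-Glo readout. Signal is normalised to DMSO and benzethonium chloride controls. Value is the normalised response at dose 3.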

[20] = tested on: HCC1937; experiment: as above
Experimental: as §2

[21] = tested on: HDQ-P1; experiment: as above
Experimental: as §2

[22] = tested on: CAL-85-1; experiment: as above
Experimental: as §2

[23] = tested on: MFM-223; experiment: as above
Experimental: as §2

[24] = tested on: CAL-148; experiment: as above
Experimental: as §2

[25] = tested on: MDA-MB-468; experiment: as above
Experimental: as §2

[26] = tested on: DU-4475; experiment: as above
Experimental: as §2

[27] = tested on: MDA-MB-453; experiment: as above
Experimental: as §2

[28] = tested on: MDA-MB-231; experiment: as above
Experimental: as §2

[29] = tested on: CAL-120; experiment: as above
Experimental: as §2

[30] = tested on: Hs578T; experiment: as above
Experimental: as §2

[31] = tested on: HCC1599; experiment: as above
Experimental: as §2

[32] = tested on: MDA-MB-436; experiment: as above
Experimental: as §2

[33] = tested on: BT-474; experiment: as above
Experimental: as §2

[34] = tested on: HCC1143; experiment: as above
Experimental: as §2

[35] = tested on: BT-549; experiment: as above
Experimental: as §2

[36] = tested on: CAL-51; experiment: as above
Experimental: as §2

[37] = tested on: MCF-10A; experiment: as above
Experimental: as §2

SMILES	normalised response [1]	normalised response [2]	normalised response [3]	normalised response [4]	normalised response [5]	normalised response [6]	normalised response [7]	normalised response [8]	normalised response [9]	normalised response [10]	normalised response [11]	normalised response [12]	normalised response [13]	normalised response [14]	normalised response [15]	normalised response [16]	normalised response [17]	normalised response [18]	normalised response [19]	normalised response [20]	normalised response [21]	normalised response [22]	normalised response [23]	normalised response [24]	normalised response [25]	normalised response [26]	normalised response [27]	normalised response [28]	normalised response [29]	normalised response [30]	normalised response [31]	normalised response [32]	normalised response [33]	normalised response [34]	normalised response [35]	normalised response [36]	normalised response [37]
COc1ncc(-c2ccc3nccc(-c4ccnnc4)c3c2)cc1NS(=O)(=O)c1ccc(F)cc1F (10 nM)	96.1%	89.5%	81.9%	96.3%	91.5%	68.8%	101%	102%	106%	102%	95%	112%	106%	93.4%	107%	106%	104%	110%	53%	78.7%	60.7%	69.5%	82.7%	96.1%	80.2%	93.1%	63.3%	82%	75.7%	77.5%	83.4%	84.6%	78.3%	85.2%	72.7%	77.2%	63.7%
C[C@@]1(C(=O)Nc2ccc(F)nc2)CCCN1c1nc(Nc2cc(C3CC3)n[nH]2)c2cccn2n1 (100 nM)	103%	89%	85.8%	104%	96.3%	71.9%	94.4%	95.8%	78.5%	100%	89.5%	98%	99.2%	95.3%	87.5%	90.2%	104%	76.1%	83.2%	90.7%	64.2%	74.9%	84.5%	102%	87.8%	82.2%	80%	79.8%	82.9%	92.7%	82.8%	86.9%	79.5%	91.9%	86.5%	106%	28.7%
Nc1nccc(-c2c(-c3ccc(F)cc3)ncn2C2CCCCC2)n1 (100 nM)	78.4%	104%	97.7%	104%	101%		107%	98.8%	112%	102%	86.7%	98.9%	81.8%	103%	100%	93.9%	94.3%	110%	97.3%	102%	95.2%	98.9%	102%	105%	96.2%	101%	104%	106%	105%	104%	102%	113%	99.9%	112%	98.3%	84.4%	105%
COc1c(C)cnc(Cn2cnc3c(Cl)nc(N)nc32)c1C [BIIB021] (100 nM)	88.4%	109%	78.5%	97%	62.7%	108%	103%	98.5%	107%	101%	107%	109%	82%	95.7%	107%	114%	122%	91.5%	45%	82.1%	81.7%	90.8%	82.7%	88.7%	81.6%	101%	81.4%	109%	85.9%	101%	85%	82.6%	106%	97.9%	65.9%	82.7%	100%
C#Cc1cccc(Nc2ncnc3cc(OC)c(OCCCCCCC(=O)NO)cc23)c1 [CUDC-101] (100 nM)	89.5%	109%	93.8%	103%	82.4%	106%	97%	101%	70.3%	84.2%	73.6%	103%		97%	111%	115%	82.4%	101%	84.2%	93.4%	84%	78.5%	78.2%	95.5%	74.1%	96.3%	60.1%	90.9%	93.3%	94.7%	105%	96.8%	91.8%	90.9%	105%	62.1%	65.4%
C[C@@H]1C=C2C(=O)O[C@@H]3CC[C@H](C1)[C@]23O [Galiellalactone] (500 nM)	100%	110%	93.5%	96.2%	99.8%	126%	105%	104%	114%	103%	105%	116%		99.7%	73.3%	89.4%	115%	104%	108%	107%	103%	100%	110%	120%	101%	103%	105%	110%	106%	104%	101%	101%	102%	109%	101%	109%	109%
CS(=O)(=O)CCNCc1ccc(-c2ccc3ncnc(Nc4ccc(OCc5cccc(F)c5)c(Cl)c4)c3c2)o1 [Lapatinib] (10 nM)	90.5%	82.1%	87.4%	105%		87.9%	101%	103%	76.9%	101%	104%	103%	107%	97.8%	109%	91.8%	99.4%	100%	87.1%	99.2%	95.7%	101%	109%	112%	99.1%	106%	105%	103%	107%	106%	97.6%	100%	101%	103%	105%	90.1%	95.5%
COC1=CC(c2cc3ccccc3[nH]2)=N/C1=C\c1[nH]c(C)cc1C [Obatoclax] (100 nM)	88.3%	53.7%	87.6%	93.8%	103%	96.5%	98.6%	104%	66.7%	95%	84.5%	98.6%		63%	89.8%	103%	88.2%	93.4%	90.5%	91.3%	99.6%	89.2%	96.3%	86%	88.4%	99.5%	104%	88.4%	98.1%	92.6%	93%	91.4%	88.8%	93.5%	97.5%	87.8%	97.3%
Cn1c(=O)c(F)c(Nc2ccc(I)cc2F)c2c(=O)n(C[C@@H](O)CO)cnc21 [TAK-733] (10 nM)		-40.4%	104%	104%	107%	113%	95.9%	112%	99.2%	103%	71.8%	119%	114%	103%	118%	105%	104%	90.9%	107%	88%	74.5%	93.7%	102%	97.2%	92.6%	38.9%	115%	90.3%	97.6%	96.8%	82.3%	104%	89.8%	92.6%	104%	84.7%	53.8%
